The values below come from patent US8461176B2, “Enantiomerically enriched aryloazol-2-yl cyanoethylamino compounds, method of making and method of using thereof” (Merial Limited, priority 2008, dated 2013).

Structures are written as SMILES. Bounds are passed on as bounds.

The first test deals with Haemonchus contortus. The test is described as follows: Method A: screening of activity against Haemonchus contortus L1 larvae in microtitre plate (development to L3 / motility). The settings on record: Haemonchus contortus, 96 h; test concentration 0.0025 ppm; 4 days assessment. The source says: Method A: Screening Method to Test Activity of Compounds Against Haemonchus contortus.
`CC(C#N)(Cn1cc2ncc(I)cc2n1)NC(=O)c1ccc(OC(F)(F)F)cc1` (stereo not shown) [Compound 3.026, N-[1-Cyano-2-(6-iodo-2H-pyrazolo[4,3-b]pyridin-2-yl)-1-methylethyl]-4-trifluoromethoxybenzamide]: the inhibition (usually the share of the control response that was lost under treatment) at 0.0025 ppm was at least 90%.
On the same count and under the same terms, to `CC(C#N)(Cn1cc2c(Cl)cc(Cl)c(Cl)c2n1)NC(=O)c1ccc(C(F)(F)F)cc1` (stereo not shown) [Compound 2.062, N-[1-Cyano-1-methyl-2-(4,6,7-trichloro-2H-indazol-2-yl)ethyl]-4-trifluoromethylbenzamide] belongs at least 90%; to `CC(C#N)(Cn1cc2c(Cl)cc(Cl)c(Cl)c2n1)NC(=O)c1ccc(OC(F)(F)C(F)F)cc1` (stereo not shown) [Compound 2.066, N-[1-Cyano-1-methyl-2-(4,6,7-trichloro-2H-indazol-2-yl)ethyl]-4-(1,1,2,2-tetrafluoroethoxy)benzamide], at least 90%.
`CC(C#N)(Cn1cc2c(Cl)cc(Cl)c(Cl)c2n1)NC(=O)c1ccc(Cl)cc1` (stereo not shown) [Compound 2.061, N-[1-Cyano-1-methyl-2-(4,6,7-trichloro-2H-indazol-2-yl)ethyl]-4-chlorobenzamide] showed an inhibition at 0.0025 ppm of at least 90%.
The same measure, in the same setting: to `CC(C#N)(Cn1cc2c(Cl)cc(Cl)c(Cl)c2n1)NC(=O)c1ccc(I)cc1` (stereo not shown) [Compound 2.068, N-[1-Cyano-1-methyl-2-(4,6,7-trichloro-2H-indazol-2-yl)ethyl]-4-iodobenzamide] belongs at least 90%.

The test is the same for the next values; noted with them: Haemonchus contortus, 96 h; test concentration 0.01 ppm; 4 days assessment.
On to `CC(C#N)(Cn1nc2cc(Cl)cnc2c1Br)NC(=O)c1ccc(OC(F)(F)F)cc1` (stereo not shown) [Compound 3.019, N-[2-(3-Bromo-6-chloro-2H-pyrazolo[4,3-b]pyridin-2-yl)-1-cyano-1-methylethyl]-4-trifluoromethoxybenzamide], for which the inhibition at 0.01 ppm is at least 90%.
In turn, `CC(C#N)(Cn1nc2c(Cl)cc(Cl)c(Cl)c2n1)NC(=O)c1ccc(OC(F)(F)C(F)F)cc1` (stereo not shown) [Compound 1.103, N-[1-Cyano-1-methyl-2-(4,5,7-trichloro-2H-benzotriazol-2-yl)-ethyl]-4-(1,1,2,2-tetrafluoroethoxy)benzamide] yielded an inhibition at 0.01 ppm of at least 90%.
The same measure, in the same setting: to `CC(C#N)(Cn1cc2c(Cl)cc(Cl)c(Cl)c2n1)NC(=O)c1ccc([N+](=O)[O-])cc1` (stereo not shown) [Compound 2.069, N-[1-Cyano-1-methyl-2-(4,6,7-trichloro-2H-indazol-2-yl)ethyl]-4-nitrobenzamide] belongs at least 90%.
On the same count and under the same terms, to `CC(C#N)(Cn1cc2ncc(Br)cc2n1)NC(=O)c1ccc(Oc2ccccc2)cc1` (stereo not shown) [Compound 3.048, N-[2-(6-Bromo-2H-pyrazolo[4,3-b]pyridin-2-yl)-1-cyano-1-methylethyl]-4-phenoxybenzamide] belongs at least 90%; to `CC(C#N)(Cn1cc2c(Cl)cc(Cl)c(Cl)c2n1)NC(=O)c1ccc(C(F)(F)F)c(F)c1` (stereo not shown) [Compound 2.190, N-[1-Cyano-1-methyl-2-(4,6,7-trichloro-2H-indazol-2-yl)ethyl]-3-fluoro-4-trifluoromethylbenzamide], at least 90%; to `COc1nc2cn(CC(C)(C#N)NC(=O)c3ccc(OC(F)(F)F)cc3)nc2cc1Br` (stereo not shown) [Compound 3.052, N-[2-(6-Bromo-5-methoxy-2H-pyrazolo[4,3-b]pyridin-2-yl)-1-cyano-1-methylethyl]-4-trifluoromethoxybenzamide], at least 90%.

Staying with this test, now noted: Haemonchus contortus, 96 h; test concentration 0.04 ppm; 4 days assessment.
On to `CC(C#N)(Cn1nc2c(Cl)cc(Cl)c(Cl)c2n1)NC(=O)c1ccc(I)cc1` (stereo not shown) [Compound 1.100, N-[1-Cyano-1-methyl-2-(4,5,7-trichloro-2H-benzotriazol-2-yl)-ethyl]-4-iodobenzamide], for which the inhibition at 0.04 ppm was at least 90%.
Still for that read-out and setting: to `CC(C#N)(Cn1cc2c(Cl)cc(Cl)c(Cl)c2n1)NC(=O)c1ccc(Oc2ccccc2)cc1` (stereo not shown) [Compound 2.067, N-[1-Cyano-1-methyl-2-(4,6,7-trichloro-2H-indazol-2-yl)ethyl]-4-phenoxybenzamide] belongs at least 90%.
Molecule `CC(C#N)(Cn1cc2c(Cl)cc(Cl)c(Cl)c2n1)NC(=O)c1ccc(F)cc1F` (stereo not shown) [Compound 2.228, N-[1-Cyano-1-methyl-2-(4,6,7-trichloro-2H-indazol-2-yl)ethyl]-2,4-difluorobenzamide] showed an inhibition at 0.04 ppm of at least 90%.
`CC(C#N)(Cn1nc2c(Cl)cc(Cl)c(Cl)c2n1)NC(=O)c1ccc(C#N)cc1` (stereo not shown) [Compound 1.102, N-[1-Cyano-1-methyl-2-(4,5,7-trichloro-2H-benzotriazol-2-yl)-ethyl]-4-cyanobenzamide] returned an inhibition at 0.04 ppm of at least 90%.
On the same count and under the same terms, to `CC(C#N)(Cn1nc2c(Cl)cc(Cl)c(Cl)c2n1)NC(=O)c1ccc(C(F)(F)F)cc1F` (stereo not shown) [Compound 1.143, N-[1-Cyano-1-methyl-2-(4,5,7-trichloro-2H-benzotriazol-2-yl)-ethyl]-2-fluoro-4-trifluoromethylbenzamide] belongs at least 90%.

Still in this test, the particulars now being: Haemonchus contortus, 96 h; test concentration 0.15 ppm; 4 days assessment.
`CC(C#N)(Cn1cc2ncc(Br)cc2n1)NC(=O)c1ccc(Cl)cc1` (stereo not shown) [Compound 3.046, N-[2-(6-Bromo-2H-pyrazolo[4,3-b]pyridin-2-yl)-1-cyano-1-methylethyl]-4-chlorobenzamide]: the inhibition at 0.15 ppm was at least 90%.
The same measure, in the same setting: for `CCOc1c2cc(Cl)ccc2nn1CC(C)(C#N)NC(=O)c1ccc(OC(F)(F)F)cc1` (stereo not shown) [Compound 2.014, N-[2-(5-Chloro-3-ethoxy-2H-indazol-2-yl)-1-cyano-1-methylethyl]-4-trifluoromethoxybenzamide] the value was at least 90%.
The same measure, in the same setting: to `CCOc1c2ccc(Cl)cc2nn1CC(C)(C#N)NC(=O)c1ccc(OC(F)(F)F)cc1` (stereo not shown) [Compound 2.027, N-[2-(6-Chloro-3-ethoxy-2H-indazol-2-yl)-1-cyano-1-methylethyl]-4-trifluoromethoxybenzamide] belongs at least 90%; to `CC(C#N)(Cn1cc2ncc(Br)cc2n1)NC(=O)c1ccc(-c2ccccc2)cc1` (stereo not shown) [Compound 3.050, N-[2-(6-Bromo-2H-pyrazolo[4,3-b]pyridin-2-yl)-1-cyano-1-methylethyl]-biphenyl-4-carboxamide], at least 90%.

Staying with this test, now noted: Haemonchus contortus, 96 h; test concentration 0.6 ppm; 4 days assessment.
Consider `CC(C#N)(Cn1cc2nc(Br)ccc2n1)NC(=O)c1ccc(OC(F)(F)F)cc1` (stereo not shown) [Compound 3.044, N-[1-Cyano-2-(5-bromo-2H-pyrazolo[4,3-b]pyridin-2-yl)-1-methylethyl]-4-trifluoromethoxybenzamide], for which the inhibition at 0.6 ppm was at least 90%.
The molecule `CC(C#N)(Cn1cc2cc(Br)cnc2n1)NC(=O)c1ccc(OC(F)(F)F)cc1` (stereo not shown) [Compound 5.001, N-[2-(5-Bromo-2H-pyrazolo[3,4-b]pyridin-2-yl)-1-cyano-1-methylethyl]-4-trifluoromethoxybenzamide] registered an inhibition at 0.6 ppm of at least 90%.
`CCCCOc1c2ccc(Cl)cc2nn1CC(C)(C#N)NC(=O)c1ccc(OC(F)(F)F)cc1` (stereo not shown) [Compound 2.031, N-[2-(6-Chloro-3-butoxy-2H-indazol-2-yl)-1-cyano-1-methylethyl]-4-trifluoromethoxybenzamide]: the inhibition at 0.6 ppm is at least 90%.
Still for that read-out and setting: to `CC(C#N)(Cn1cc2ncccc2n1)NC(=O)c1ccc(OC(F)(F)F)cc1` (stereo not shown) [Compound 3.045, N-[1-Cyano-1-methyl-2-(2H-pyrazolo[4,3-b]pyridin-2-yl)ethyl]-4-trifluoromethoxybenzamide] belongs at least 90%; to `CCCOc1c2ccc(Cl)cc2nn1CC(C)(C#N)NC(=O)c1ccc(OC(F)(F)F)cc1` (stereo not shown) [Compound 2.029, N-[2-(6-Chloro-3-propoxy-2H-indazol-2-yl)-1-cyano-1-methylethyl]-4-trifluoromethoxybenzamide], at least 90%.
